Measurements reported in US7713994B2 (Wyeth LLC, priority 2005, dated 2010).
Read-outs that look alike come from different tables or passages of the source.

Tests used:
cyclin D1/cdk 4 enzyme = biological target: T1, cyclin D1/cdk 4 enzyme (Homo sapiens, UniProt P11802); assay: CDK4 ELISA kinase assay (phospho-Rb ser 795 detection); format: biochemical
T1 construct: made in house; host or cells: Sf9 insect cells, recombinant baculovirus
Procedure, shortened: (§1)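 GST-Rb C-terminal fragment coated on plates; partially purified Sf9-expressed cyclin D1/CDK4, cyclin E/CDK2 or cyclin B/CDK1 with 200 μM ATP, pH 7.5 HEPES/MgCl2 buffer, 1 h at 30 °C; screen compound final 10 μg/ml. Phospho-Rb Ser795 detected by antibody ELISA (TMB, A450); % of control, IC50 from background-subtracted inhibition curves.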

cyclin B/CDK1 enzyme = biological target: T2, cyclin B/CDK1 enzyme (Homo sapiens, UniProt P06493); assay: CDK1 ELISA kinase assay (phospho-Rb ser 795 detection); format: biochemical
T2 construct: purchased New England BioLabs; host or cells: Sf9 insect cells, recombinant baculovirus
T2 sequence (P06493 whole entry): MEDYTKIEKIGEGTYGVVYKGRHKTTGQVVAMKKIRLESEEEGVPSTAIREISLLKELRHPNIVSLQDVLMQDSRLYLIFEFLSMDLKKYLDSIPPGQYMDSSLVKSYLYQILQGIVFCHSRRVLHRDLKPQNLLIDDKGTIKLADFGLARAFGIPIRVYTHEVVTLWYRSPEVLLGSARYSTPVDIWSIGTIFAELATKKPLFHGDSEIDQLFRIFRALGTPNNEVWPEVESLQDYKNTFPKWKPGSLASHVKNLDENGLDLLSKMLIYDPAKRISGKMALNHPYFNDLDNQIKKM
T2 sequence (P14635 whole entry partner): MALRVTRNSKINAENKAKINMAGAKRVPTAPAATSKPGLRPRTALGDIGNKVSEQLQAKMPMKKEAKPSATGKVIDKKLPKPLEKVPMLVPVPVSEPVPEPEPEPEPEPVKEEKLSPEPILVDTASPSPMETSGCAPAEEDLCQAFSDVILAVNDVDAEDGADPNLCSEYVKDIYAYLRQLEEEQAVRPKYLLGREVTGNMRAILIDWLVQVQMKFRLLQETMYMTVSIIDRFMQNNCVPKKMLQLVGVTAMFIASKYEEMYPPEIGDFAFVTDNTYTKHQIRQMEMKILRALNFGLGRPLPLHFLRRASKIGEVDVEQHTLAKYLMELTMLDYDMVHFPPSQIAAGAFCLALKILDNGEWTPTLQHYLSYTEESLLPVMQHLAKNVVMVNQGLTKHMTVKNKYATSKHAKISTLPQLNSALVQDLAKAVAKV
Procedure, shortened: as §1

MCF-7 = assay: Cytotoxicity assay (SRB), MCF-7; format: cell-based; conditions: Homo sapiens, MCF7, 72 h, MCF-7 cells, SRB, read-out: In Vitro Cellular Activity IC50 MCF-7
Procedure, shortened: (§2)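 Cells grown in RPMI 1640 with 5% FBS were treated with compound for three days (HCT-116, LoVo, MCF-7) or six days (BT474). Viable cell mass was quantified by sulforhodamine B staining of TCA-fixed protein and read at 540 nm.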

LoVo = assay: Cytotoxicity assay (SRB), LoVo; format: cell-based; conditions: Homo sapiens, LoVo, 72 h, LoVo cells, SRB, read-out: In Vitro Cellular Activity IC50 LOVO
Procedure, shortened: as §2

cyclin E/CDK2 enzyme = biological target: T3, cyclin E/CDK2 enzyme (Homo sapiens, UniProt P24941); assay: CDK2 ELISA kinase assay (phospho-Rb ser 795 detection); format: biochemical
T3 construct: made in house; host or cells: Sf9 insect cells, recombinant baculovirus
Procedure, shortened: as §1

BT474 = assay: Cytotoxicity assay (SRB), BT474; format: cell-based
Procedure, shortened: as §2

HCT-116 = assay: Cytotoxicity assay (SRB), HCT-116; format: cell-based; conditions: Homo sapiens, HCT-116, 72 h, HCT116 cells, SRB, read-out: In Vitro Cellular Activity IC50 HCT116
Procedure, shortened: as §2

[1] = In Vitro Enzyme Assays, 200 μM ATP, read-out: CDK4 IC50
[2] = In Vitro Enzyme Assays, read-out: CDK1 IC50
[3] = In Vitro Enzyme Assays, read-out: CDK2 IC50
[4] = Homo sapiens, BT-474, 144 h, BT474 cells, SRB, 6 days; read-out: In Vitro Cellular Activity IC50 BT474
[5] = In Vitro Enzyme Assay, cyclin D1/cdk 4, read-out: CDK4 IC50
[6] = In Vitro Enzyme Assay, cyclin B/CDK1, read-out: CDK1 IC50
[7] = In Vitro Enzyme Assay, cyclin E/CDK2, read-out: CDK2 IC50
[8] = Homo sapiens, BT-474, 144 h, BT474 cells, 6 days, SRB; read-out: In Vitro Cellular Activity IC50 BT474

T1 sequence (P11802 whole entry, species assumed): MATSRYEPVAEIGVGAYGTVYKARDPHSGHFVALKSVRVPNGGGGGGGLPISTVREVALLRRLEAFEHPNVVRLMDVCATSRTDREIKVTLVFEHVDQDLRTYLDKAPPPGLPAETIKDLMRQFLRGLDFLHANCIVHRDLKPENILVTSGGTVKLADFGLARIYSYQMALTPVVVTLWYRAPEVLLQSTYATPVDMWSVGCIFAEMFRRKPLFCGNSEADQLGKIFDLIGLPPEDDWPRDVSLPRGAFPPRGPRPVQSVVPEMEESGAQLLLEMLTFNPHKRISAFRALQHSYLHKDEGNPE
T1 sequence (P24385 whole entry partner, species assumed): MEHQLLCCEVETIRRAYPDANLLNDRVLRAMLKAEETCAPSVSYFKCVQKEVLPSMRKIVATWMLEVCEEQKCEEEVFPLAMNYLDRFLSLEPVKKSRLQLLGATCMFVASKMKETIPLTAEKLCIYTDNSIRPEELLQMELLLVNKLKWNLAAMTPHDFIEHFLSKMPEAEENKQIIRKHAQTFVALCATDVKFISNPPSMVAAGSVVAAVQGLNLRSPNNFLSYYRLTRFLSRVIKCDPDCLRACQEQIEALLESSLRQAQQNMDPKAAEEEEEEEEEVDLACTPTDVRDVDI

CN1CCN(c2ccc(N/C=C3\C(=O)N(CO)C(=O)c4ccc(Br)cc43)cc2)CC1 [Example 220, (4Z)-6-Bromo-2-(hydroxymethyl)-4-({[4-(4-methylpiperazin-1-yl)phenyl]amino}methylene)isoquinoline-1,3(2H,4H)-dione]
IC50 (cyclin D1/cdk 4 enzyme; [1]): 3.3 µM | melting point: 141 to 142 °C | IC50 (cyclin B/CDK1 enzyme; [2]): > 50 µM | IC50 (MCF-7; three days): 2.4 µM | IC50 (LoVo; three days): 3.8 µM | IC50 (cyclin E/CDK2 enzyme; [3]): > 50 µM | IC50 (BT474; [4]): 3.3 µM | IC50 (HCT-116; three days): 3.2 µM

COC[C@H]1CCCN1Cc1ccc(N/C=C2\C(=O)NC(=O)c3ccc(-c4ccsc4)cc32)cc1 [Example 331, (4Z)-4-{[(4-{[(2R)-2-(Methoxymethyl)pyrrolidin-1-yl]methyl}phenyl)amino]methylene}-6-thien-3-ylisoquinoline-1,3(2H,4H)-dione]
IC50 (cyclin D1/cdk 4 enzyme; [1]): 0.17 µM | melting point: 95 to 96 °C | IC50 (cyclin B/CDK1 enzyme; [2]): > 50 µM | IC50 (MCF-7; three days): 1.7 µM | IC50 (LoVo; three days): 3 µM | IC50 (cyclin E/CDK2 enzyme; [3]): > 50 µM | IC50 (BT474; [4]): 3.3 µM | IC50 (HCT-116; three days): 1.5 µM

C[C@@H]1CN(c2ccc(N/C=C3\C(=O)NC(=O)c4ccc(Br)cc43)nc2)C[C@H](C)N1 [Example 469, (4Z)-6-Bromo-4-[({5-[(3R,5S)-3,5-dimethylpiperazin-1-yl]pyridin-2-yl}amino)methylene]isoquinoline-1,3(2H,4H)-dione]
IC50 (cyclin D1/cdk 4 enzyme; [5]): 2.2 µM | melting point: 245 to 246 °C | IC50 (cyclin B/CDK1 enzyme; [6]): 2.7 µM | IC50 (MCF-7; 3 days): 2.9 µM | IC50 (LoVo; 3 days): 1.2 µM | IC50 (cyclin E/CDK2 enzyme; [7]): 17.6 µM | IC50 (BT474; [8]): 2.2 µM | IC50 (HCT-116; 3 days): 0.8 µM

CC(=O)Oc1cc(CNC=C2C(=O)NC(=O)c3ccc(Br)cc32)cc(OC(C)=O)c1 [Example 69, Acetic acid 3-acetoxy-5-{[(6-bromo-1,3-dioxo-2,3-dihydro-1H-isoquinolin-4-ylidenemethyl)-amino]-methyl}-phenyl ester]
IC50 (cyclin D1/cdk 4 enzyme; [1]): 0.12 µM | melting point: 257 to 258 °C | IC50 (cyclin B/CDK1 enzyme; [2]): > 50 µM | IC50 (MCF-7; three days): 8.2 µM | IC50 (LoVo; three days): 5.2 µM | IC50 (cyclin E/CDK2 enzyme; [3]): 44.5 µM | IC50 (BT474; [4]): 5.6 µM | IC50 (HCT-116; three days): 6.5 µM

COc1cc(CN/C=C2\C(=O)NC(=O)c3ccc(-c4ccc(Oc5ccccc5)cc4)cc32)cc(O)c1OC [Example 100, (4Z)-6-(4-Phenoxyphenyl)-4-{[(3-hydroxy-4,5-dimethoxybenzyl)amino]methylene}isoquinoline-1,3(2H,4H)-dione]
IC50 (cyclin D1/cdk 4 enzyme; [1]): 0.34 µM | melting point: 240 to 241 °C | IC50 (cyclin B/CDK1 enzyme; [2]): > 50 µM | IC50 (MCF-7; three days): 11 µM | IC50 (LoVo; three days): 27.8 µM | IC50 (cyclin E/CDK2 enzyme; [3]): > 50 µM | IC50 (BT474; [4]): 8.8 µM | IC50 (HCT-116; three days): 13.6 µM

CN(C)CCCN1CCC(c2ccc(N/C=C3\C(=O)NC(=O)c4ccc(I)cc43)cc2)CC1 [Example 425, (4Z)-4-{[(4-{1-[3-(Dimethylamino)propyl]piperidin-4-yl}phenyl)amino]methylene}-6-iodoisoquinoline-1,3(2H,4H)-dione]
IC50 (cyclin D1/cdk 4 enzyme; [1]): 0.36 µM | melting point: 139 to 140 °C | IC50 (cyclin B/CDK1 enzyme; [2]): 44.4 µM | IC50 (MCF-7; 3 days): 2.6 µM | IC50 (LoVo; 3 days): 1.2 µM | IC50 (cyclin E/CDK2 enzyme; [3]): 37.1 µM | IC50 (BT474; [8]): 1.5 µM | IC50 (HCT-116; 3 days): 0.6 µM

CN1CCN(c2ccc(N/C=C3\C(=O)NC(=O)c4ccc(I)cc43)cn2)CC1 [Example 237, (4Z)-6-Iodo-4-({[6-(4-methylpiperazin-1-yl)pyridin-3-′yl]amino}methylene)isoquinoline-1,3(2H,4H)-dione]
IC50 (cyclin D1/cdk 4 enzyme; [1]): 0.44 µM | melting point: 189 to 190 °C | IC50 (cyclin B/CDK1 enzyme; [2]): 32.4 µM | IC50 (MCF-7; three days): 4 µM | IC50 (LoVo; three days): 7.4 µM | IC50 (cyclin E/CDK2 enzyme; [3]): 22.6 µM | IC50 (BT474; [4]): 3.2 µM | IC50 (HCT-116; three days): 2.6 µM

O=C1NC(=O)c2ccc(Br)cc2/C1=C/NCc1ccc(NC(=O)C(F)(F)F)c(O)c1 [Example 218, N-[4-({[(Z)-(6-Bromo-1,3-dioxo-2,3-dihydroisoquinolin-4(1H)-′ylidene)methyl]amino}methyl)-2-hydroxyphenyl]-2,2,2-trifluoroacetamide]
IC50 (cyclin D1/cdk 4 enzyme; [1]): 0.15 µM | melting point: 278 to 279 °C | IC50 (cyclin B/CDK1 enzyme; [2]): > 50 µM | IC50 (MCF-7; three days): 19 µM | IC50 (LoVo; three days): 4.5 µM | IC50 (cyclin E/CDK2 enzyme; [3]): > 50 µM | IC50 (BT474; [4]): 2.6 µM | IC50 (HCT-116; three days): 3.3 µM

CO[C@H]1CCN(Cc2ccc(N/C=C3\C(=O)NC(=O)c4ccc(-c5ccc(F)cc5)cc43)cc2)C1 [Example 265, (4Z)-6-(4-Fluorophenyl)-4-{[(4-{[(3S)-3-methoxypyrrolidin-1-yl]methyl}phenyl)amino]methylene}isoquinoline-1,3(2H,4H)-dione]
IC50 (cyclin D1/cdk 4 enzyme; [1]): 0.3 µM | melting point: 145 to 146 °C | IC50 (cyclin B/CDK1 enzyme; [2]): > 50 µM | IC50 (MCF-7; three days): 1.4 µM | IC50 (LoVo; three days): 2.8 µM | IC50 (cyclin E/CDK2 enzyme; [3]): > 50 µM | IC50 (BT474; [4]): 1.7 µM | IC50 (HCT-116; three days): 2 µM

O=C1NC(=O)c2ccc(Br)cc2/C1=C/Nc1ccc(CCN2CCCC2)cc1 [Example 176, 6-Bromo-4-{[4-(2-pyrrolidin-1-yl-ethyl)-phenylamino]-methylene}-4H-isoquinolin-1,3-dione]
IC50 (cyclin D1/cdk 4 enzyme; [1]): 1.3 µM | melting point: 212 to 214 °C (dec.) | IC50 (cyclin B/CDK1 enzyme; [2]): > 50 µM | IC50 (MCF-7; three days): 3.8 µM | IC50 (LoVo; three days): 4.5 µM | IC50 (cyclin E/CDK2 enzyme; [3]): > 50 µM | IC50 (BT474; [4]): 7.2 µM | IC50 (HCT-116; three days): 3.4 µM

CN(C)Cc1ccc(N/C=C2\C(=O)NC(=O)c3ccc(Br)cc32)cc1 [Example 73]
IC50 (cyclin D1/cdk 4 enzyme; [1]): 0.83 µM | melting point: 159 to 160 °C | IC50 (cyclin B/CDK1 enzyme; [2]): 43.5 µM | IC50 (MCF-7; three days): 9.3 µM | IC50 (LoVo; three days): 13 µM | IC50 (cyclin E/CDK2 enzyme; [3]): 7.7 µM | IC50 (BT474; [4]): 18 µM | IC50 (HCT-116; three days): 10 µM

CN1CCN(c2ccc(N/C=C3\C(=O)NC(=O)c4ccc(Br)cc43)nn2)CC1 [Example 477, (4Z)-6-Bromo-4-({[6-(4-methylpiperazin-1-yl)pyridazin-3-yl]amino}methylene)isoquinoline-1,3(2H,4H)-dione]
IC50 (cyclin D1/cdk 4 enzyme; [5]): 13.8 µM | melting point: 245 to 246 °C | IC50 (cyclin B/CDK1 enzyme; [6]): 24.2 µM | IC50 (MCF-7; 3 days): 2.3 µM | IC50 (LoVo; 3 days): 3.9 µM | IC50 (cyclin E/CDK2 enzyme; [7]): 40.6 µM | IC50 (BT474; [8]): 4.1 µM | IC50 (HCT-116; 3 days): 1.6 µM

O=C1NC(=O)c2ccc(Br)cc2/C1=C/Nc1ccc(N2CCC(N3CCCC3)CC2)nc1 [Example 407, (4Z)-6-Bromo-4-({[6-(4-pyrrolidin-1-ylpiperidin-1-yl)pyridin-3-yl]amino}methylene)isoquinoline-1,3(2H,4H)-dione]
IC50 (cyclin D1/cdk 4 enzyme; [1]): 1.6 µM | melting point: 214 to 215 °C | IC50 (cyclin B/CDK1 enzyme; [2]): > 50 µM | IC50 (MCF-7; 3 days): 9.7 µM | IC50 (LoVo; 3 days): 8.5 µM | IC50 (cyclin E/CDK2 enzyme; [3]): > 50 µM | IC50 (BT474; [8]): 10.2 µM | IC50 (HCT-116; 3 days): 3.8 µM
